Experimental data as given in patent US20040152868A1, “Compositions and methods for modulating guanylyl cyclase signaling receptor (gc-c) activity and for treating meniere's disease” (priority 2001, published 2004).
Like-named read-outs stand apart in the source and are kept apart here. Bridge positions count the residues as written; N and C are the ends. Square brackets hold non-standard residues; d marks the D form. Ends that are not written are not given here. Peptide text beside a SMILES is read from it. 2Nal = N[C@@H](Cc1ccc2ccccc2c1)C(=O)O

Experiments:
[1] = biological target: T1, guanylyl cyclase (GC-C) receptor (Homo sapiens, UniProt P25092); assay: cGMP-efficacy on T84 cells (stimulation of cGMP formation); format: cell-based; conditions: cGMP formation in T84 cells; for EC50: efficacy assay of Example 1
T1 construct: stimulation of cGMP in T84 cell cultures may be used as an efficacy assay; endogenous in cells; host or cells: T84 (human colon carcinoma cell line)
Description: T84 cells are grown to near confluence in DMEM medium and Ham's F-12 medium (1:1) supplemented with 5% Foetal Calf Serum (FCS), […] in 175 cm^2 culture flasks (Nunc) at 37° C., 5% CO2 and 100% humidity. Cells are harvested in ice-cold PBS and centrifuged at 100×G for 10 min at 4° C. The sedimented cells are lysed in 2.5 ml dist. H2O/culture flask at 0° C. for 30 min and centrifuged at 50,000×G 4° C. for 45 min. The membrane pellet is taken up in binding buffer (50 mM HEPES, 1 mM EDTA, 10 mM MgCl2, pH 7.4) supplemented with 10% sucrose and stored at −80° C. until use.
For stimulation of cGMP formation, cells are seeded in 96-well microtiter plates (Nunc) at a density of 2500 cells/well (˜7576 cells/cm^2) and grown for 3 days before use under the same culture conditions mentioned above.
On the day of analysis growth medium is removed and the T84 cells are washed twice in Dulbeccos Phosphate Buffered Saline™ (D-PBS) containing 6 mM glucose at 37° C. Cells are then incubated at 37° C. for 40 min in the same medium supplemented with 2 mM IBMX (a phosphodiesterase inhibitor) and increasing concentrations of test compounds. The reaction is stopped by addition of ice-cold 20 μl 0.50 M HCl and incubation on ice for further 20 min. 20 μl of the acid extract is used for determination of cGMP by the FlashPlate™ technique and another 20 μl is used for determination of protein content.
Data from the cGMP experiments are treated in an analogueous way and fitted to:
f=(cGMPmax−cGMPbasic)*s/(s+EC50)+cGMPbasic
where cGMPmax is maximal obtainable cGMP and cGMPbasic is the basic level of cellular cGMP. EC50 is the concentration giving half maximum effect and s the concentration of test compound. […]

[2] = rat, in vivo; cited from earlier work
[3] = biological target: T1, guanylyl cyclase (GC-C) receptor; conditions: T84 cells, reported values; cited from earlier work
[4] = standard diuresis assay / renal clearance in conscious rats with arterial pressure and heart rate recording; format: in vivo, rat
Description: Male Sprague-Dawley rats weighing 350-370 g (M&B, Denmark) were anaesthetized with a subcutaneous injection of 2 ml/kg of a 1:1 mixture of Hypnorm® (fentanyl citrate 0.315 mg/ml and fluanisone 10 mg/ml) and Dormicum® (midazolam 5 mg/ml) diluted 1:1 in distilled water. Permanent catheters were inserted into the femoral vein and artery. The i.v. line is used for i.v. infusion and the arterial line is used for continuous intra-arterial blood pressure recording and withdrawal of blood samples. A permanent supra-pubic catheter was inserted into the urinary bladder, which allowed fractionated urine collection and determination of urine flow rate. Animals were allowed about one week of recovery before they were used for experiments.
On the day of the experiment, the rat was placed in a lucid restrainer. […] To obtain a stable urine production under these conditions, the rat was slightly water loaded by i.v. infusion of a hypotonic glucose solution (150 mM glucose; 100 μl/min the first 15 min, then 25 μl/min throughout the experiment). The arterial line was connected to a pressure transducer (Baxter Truware: PX-260 Uden, Netherlands) and the pulsatile arterial blood pressure was amplified (×1.000-10.000) via a Hugo Sachs Electronic Tranducer Amplifier Module model 705/1. The analogue signal was digitalized via a 12 bit data acquisition board (Data Translation model DT321) and sampled at 1000 Hz using the Notocord HEM version 4 software for Windows NT. The systolic peak pressure triggered a software heart rate module that calculated heart rate beat-to-beat.
After a 60 minutes equilibration period, fractionated collection of urine was started (t=0). After 4 control periods (4×15 minutes), a bolus injection of Mouse-Guanylin-Asp—OH, 10 μmol/kg i.v was administered and collection of urine was collected in 15 minute periods for 3 hours (period […]). Urine volume was measured gravimetrically. The urine samples were stored at −20° C. until further analysis. Urine was analysed for sodium and potassium using a using a flame spectrophotometer (Instrumentation Laboratory, model IL 943).

[5] = otoacoustic emission (DP-gram) in rats after 14 days i.p. infusion; format: in vivo, rat
Description: In this example, rats were given 8 nmol/kg/h of Compound 1 intraperitoneally for 14 days via Alzet osmotic pumps. Otoacoustic emissions were measured before treatment and at the end of treatment. Urine samples were collected during infusion, and the natriuretic effect of Compound 1 was measured by flame spectroscopy.
18 female Sprague-Dawley rats weighing 250 g each were divided into two groups. In total, 8 control animals received vehicle and 10 animals received COMPOUND 1. During the experiment the animals had free access to food and water.
Prior to the study COMPOUND 1 was dissolved in 50 mM phosphate buffer pH 4.0 containing 1% BSA and loaded into Alzet osmotic pumps. The pumps were then surgically inserted into the peritoneum of the rats administering 8 nmol/kg/h for 14 days. After insertion of the pumps the animals were placed in metabolic cages for a week, and samples of urine were collected every 24 hrs from Day 0 through Day 6.
The rats were all tested before the start of the study and at the end of the study. […]
The only DPOAE measured were the amplitude of cubic distortion product 2f1-f2, and always with the level of f1 (L1) 10 dB higher than the level of f2 (L2=L1-10 dB). The output of the ER-10B microphone was feed to a B&K (Nexus) amplifier and analysed on an HP 35670A spectrum. […]

T1 sequence (P25092 24-1073): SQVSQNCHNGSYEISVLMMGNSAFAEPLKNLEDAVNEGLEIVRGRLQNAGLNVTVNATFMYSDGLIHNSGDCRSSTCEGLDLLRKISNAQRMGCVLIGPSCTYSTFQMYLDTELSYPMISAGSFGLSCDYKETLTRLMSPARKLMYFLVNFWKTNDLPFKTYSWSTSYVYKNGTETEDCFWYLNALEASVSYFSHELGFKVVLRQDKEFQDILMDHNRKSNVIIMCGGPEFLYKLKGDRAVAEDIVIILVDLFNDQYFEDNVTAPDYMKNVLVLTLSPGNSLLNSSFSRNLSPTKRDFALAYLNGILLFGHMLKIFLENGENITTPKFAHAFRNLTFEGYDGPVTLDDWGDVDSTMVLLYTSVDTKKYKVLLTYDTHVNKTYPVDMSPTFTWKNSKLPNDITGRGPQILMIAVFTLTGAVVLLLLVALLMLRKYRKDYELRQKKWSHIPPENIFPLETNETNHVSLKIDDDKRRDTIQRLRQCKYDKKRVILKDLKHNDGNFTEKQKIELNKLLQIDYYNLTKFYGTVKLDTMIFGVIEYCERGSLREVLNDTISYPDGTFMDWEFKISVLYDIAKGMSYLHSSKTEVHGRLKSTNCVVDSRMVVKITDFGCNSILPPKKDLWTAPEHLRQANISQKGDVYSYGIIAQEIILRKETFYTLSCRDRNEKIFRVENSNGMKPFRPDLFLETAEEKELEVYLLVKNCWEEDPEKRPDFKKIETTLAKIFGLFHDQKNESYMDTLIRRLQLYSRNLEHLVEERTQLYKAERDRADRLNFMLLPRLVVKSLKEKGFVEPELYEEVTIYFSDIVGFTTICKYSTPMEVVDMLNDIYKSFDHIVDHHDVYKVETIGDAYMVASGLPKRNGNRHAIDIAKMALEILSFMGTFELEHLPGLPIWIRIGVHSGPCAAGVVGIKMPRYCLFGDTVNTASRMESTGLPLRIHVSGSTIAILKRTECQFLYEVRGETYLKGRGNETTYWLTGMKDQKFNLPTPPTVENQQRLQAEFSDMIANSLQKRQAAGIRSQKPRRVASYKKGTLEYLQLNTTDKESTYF

Molecule: SPNFIWK [Compound 3, H-Ser-Pro-Asn-Phe-Ile-Trp-Lys—NH2]
- EC50 [1]: No effect

Molecule: guanylin (PGTCEICAYAACTGC; ends and bridges not checked; cysteine pairing not given here; UniProt Q02747 101-115, looked up)
- diuretic, natriuretic and kaliuretic effect [2]: substantial diuretic, natriuretic and kaliuretic effect
- increase in cGMP production reported [3]: 300 fold

Molecule: CC[C@H](C)[C@@H]1NC(=O)[C@H](CCC(=O)O)NC(=O)[C@@H](NC(=O)[C@@H](N)[C@@H](C)O)CSSC[C@@H]2NC(=O)[C@H](C)NC(=O)[C@H](C)NC(=O)[C@H](Cc3ccccc3)NC(=O)[C@H](C)NC(=O)[C@H](CSSC[C@@H](C(=O)N[C@@H](CC(C)C)C(N)=O)NC(=O)CNC(=O)[C@H]([C@@H](C)O)NC2=O)NC1=O [Compound 5, des-Pro^1, des-Asn^2[Phe^9]Guanylin-L-NH2 (rat/mouse)] (H-TCEICAFAACTGCL-NH2; disulfide 2-10, 5-13 (inferred))
- EC50 ([1]; read-out: EC50): 28 µM

Molecule: CC[C@H](C)[C@@H]1NC(=O)[C@H](CCC(=O)O)NC(=O)[C@@H](NC(=O)[C@@H](N)[C@@H](C)O)CSSC[C@@H]2NC(=O)[C@H](C)NC(=O)[C@H](C)NC(=O)[C@H](Cc3ccc4ccccc4c3)NC(=O)[C@H](C)NC(=O)[C@H](CSSC[C@@H](C(=O)N[C@@H](CC(C)C)C(N)=O)NC(=O)CNC(=O)[C@H]([C@@H](C)O)NC2=O)NC1=O [Compound 6, des-Pro^1, des-Asn^2[2-Nal^9]Guanylin-L-NH2 (rat/mouse)] (H-TCEICA[2Nal]AACTGCL-NH2; disulfide 2-10, 5-13)
- EC50 ([1]; read-out: EC50): > 100 µM

Molecule: Mouse-Guanylin-Asp-OH [Compound 13]
- effect on heart rate ([4]; conscious rats, 10 μmol/kg i.v.): no effect
- increase in mean arterial blood pressure ([4]; conscious rats, 10 μmol/kg i.v. bolus, immediate and sustained): 15-20 mmHg
- effect on urinary potassium excretion rate ([4]; rats, 10 μmol/kg i.v.): rapid and transient increase
- effect on urinary sodium excretion rate ([4]; rats, 10 μmol/kg i.v.): immediate and sustained increase
- effect on urine flow rate ([4]; rats, 10 μmol/kg i.v.): rapid and transient increase

Molecule: Cyclo(Gly-Glu-Ile-Gly-Ala-Tyr-Ala-Ala-Gly-Thr-Gly-Gln-) (GEIGAYAAGTGQ; cyclic; printed: Gly-Glu-Ile-Gly-Ala-Tyr-Ala-Ala-Gly-Thr-Gly-Gln-) [Compound 4]
- EC50 [1]: No effect

Molecule: des-Pro^1, des-Asn^2Guanylin-LKK-NH2 mono oxidised(1-3) (rat/mouse) [Compound 7]
- EC50 [1]: No effect

Molecule: uroguanylin (NDDCELCVNVACTGCL; ends and bridges not checked; cysteine pairing not given here; UniProt Q16661 97-112, looked up) [synthetic uroguanylin, member of the guanylin peptide family]
- increase in cGMP production reported [3]: 300 fold

Molecule: Guanylin-Asp-Lys6-NH2 (rat/mouse) [Compound 12]
- agonist character at GC-C [1]: potent agonist

Molecule: CC[C@H](C)[C@@H]1NC(=O)[C@H](CCC(=O)O)NC(=O)[C@@H](NC(=O)[C@@H](N)[C@@H](C)O)CSSC[C@@H]2NC(=O)[C@H](C)NC(=O)[C@H](C)NC(=O)[C@H](Cc3ccc(O)cc3)NC(=O)[C@H](C)NC(=O)[C@H](CSSC[C@@H](C(=O)N[C@@H](CC(C)C)C(=O)N[C@@H](CCCCN)C(=O)N[C@@H](CCCCN)C(N)=O)NC(=O)CNC(=O)[C@H]([C@@H](C)O)NC2=O)NC1=O [Compound 8, des-Pro^1, des-Asn^2Guanylin-LKK-NH2 fully oxidised(1-3, 2-4) (rat/mouse): H-TCEICAYAACTGCLKK-NH2 oxidised(1-3, 2-4)] (H-TCEICAYAACTGCLKK-NH2; disulfide 2-10, 5-13)
- EC50 ([1]; read-out: EC50): 29 µM

Molecule: CC[C@H](C)[C@@H]1NC(=O)[C@H](CCC(=O)O)NC(=O)[C@@H](NC(=O)[C@@H](NC(=O)[C@H](CC(N)=O)NC(=O)[C@@H]2CCCN2)[C@@H](C)O)CSSC[C@@H]2NC(=O)[C@H](C)NC(=O)[C@H](C)NC(=O)[C@H](Cc3ccc(O)cc3)NC(=O)[C@H](C)NC(=O)[C@H](CSSC[C@@H](C(N)=O)NC(=O)CNC(=O)[C@H]([C@@H](C)O)NC2=O)NC1=O [Compound 1, Mouse-Guanylin-NH2, H-PNTC*EICAYAAC*TGC-NH2 (double oxidised C to C and C* to C*)] (H-PNTCEICAYAACTGC-NH2; disulfide 4-12, 7-15)
- otoacoustic emission at 14 to 16 kHz ([5]; 8 nmol/kg/h intraperitoneally for 14 days via Alzet osmotic pumps): significant decrease
- change in otoacoustic emission from before to after treatment (2-way ANOVA) ([5]; 14 days, most pronounced at the 14 kHz level): significant decrease
- EC50 ([1]; read-out: EC50): 6.1 µM
